Assays:
[1] = system: dN-phagocytic microglia (MG-dNΦ); experiment: Acute neurodegeneration mouse model (dead neurons injection), RNA-Sequencing of microglia; assay type: in vivo
Method: We developed a new acute neurodegeneration mouse model to induce neurodegenerative MGnD-microglia^36. In brief, primary neurons (d7-d10) were typically cultured one week after initiation of culture. Neurons were removed from the surface of the plate by multiple washed with PBS. The neurons were then incubated under UV light (302 nm) at an intensity of 6315 W for 15 minutes to induce apoptosis. After this step the neurons were kept on ice. The cells were collected, spun down via centrifugation, and resuspended in 1 ml PBS. Next they were stained with the labeling dye (Alexa405 NHS Ester, Invitrogen, A3000) for 15 min at 37° C., protected from light. Neurons were then washed, spun and resuspended. Number of apoptotic cells was determined using a trypan blue stain and a cellometer. Neurons were resuspended at a density of 50,000 cells per μl.
These apoptotic dead neurons (dN) injected into the cortex and hippocampus of naïve mice induced the recruitment of P2ry12^+ microglia towards the site of injection. P2ry12^+ microglia changed morphology from an M0-homeostatic non-phagocytic (MG-nΦ) phenotype to an amoeboid-phagocytic (MG-dNΦ) phenotype at the vicinity of the injection site. Induction of MGnD microglia was not detected in PBS-injected control brains. […] Trem2 expression has been shown previously, including by our laboratory and others, to have beneficial effect on microglia recruitment towards Aβ-plaques^61-63, associated with restriction of AD^64. Moreover, TREM2 has been recently identified as a receptor for Aβ^65. […] This provides evidence that Xe-gas treatment has a protective immunomodulatory role to induce microglia protective functions to treat AD.

[2] = system: EAE in C57BL6 animals; experiment: Experimental autoimmune encephalomyelitis (EAE) model; assay type: in vivo, mouse
Method: FIGS. 9A-E. Xenon treatments delayed EAE symptoms. A. Scheme representative of experimental design used. C57BL6 animals were immunized with 150 ug of MOG diluted v/v in CFA followed by two doses of B. Pertussis toxin (200 ng) applied during immunization and 48 hours later. The treatment with xenon consisted of a 40 minutes exposure twice a week starting on day 0. After clinical evaluation the animals were euthanized at the peak of the disease and the frequency of inflammatory cells evaluated by flow cytometry and IHC. B. Score curve from clinical signs. C. Evaluation of microglia cells from spinal cord by flow cytometry. Gate based on population CD45+, CD11b+, Ly6C−, Clec12a−. D. T Helper cells evaluation by flow cytometry. E. Immunofluorescence of spinal cord from animals on day 17th. At top the control animals and at the bottom the animals treated with Xenon. The tissue was stained for Tmem119, Clec7a and MBP, quantification measured by the Fiji ImageJ software. Statistical analysis: T-test. In order to evaluate the effects of Xenon as a possible candidate for Multiple Sclerosis (MS) treatment, we development a new protocol of exposition. We used the experimental autoimmune encephalomyelitis (EAE) model that mimics part of the mechanisms presents in MS. The induction of this model is due to the combination of the oligodendrocyte myelin (MOG) diluted in complete Freund's adjuvant (CFA) to break immunological tolerance and initiate the development of autoimmunity in these animals. In association we give two 200 ng doses of Bordetella Pertussis toxin that helps in increasing the permeability of the blood-brain barrier allowing the entry of immune cells to the spinal cord. The treatment with xenon was divided into 5 exposures of 40 minutes divided twice a week in the concentration of 3 PSI of xenon with 1 PSI of oxygen with the oxygen and CO2 concentration constantly measured. This treatment took place from day 0 to day 15 after immunization, with the animals' euthanasia on day 17 (See FIG. 9A). The clinical evaluation started on day 8 with the clinical signs being classified into: 0 no disease, 1—limp tail, 2—weak/partially paralyzed hind legs, 3—completely paralyzed hind legs, 4—complete hind and partial front leg paralysis, 5—complete paralysis/death.

[3] = system: U-937 cells; experiment: Apoptosis in stored U-937 cells; assay type: cell-based, human; details: xenon vs no gas
Excerpt: (§1) FIGS. 7A-D. Xe-treatment prevents apoptosis in variety of cells. A. Viability of lymphocyte-like Jurkat cell after 1 day storage. […] C. Viability of monocyte-like U-937 cells after 1 day storage. D. Viability of monocyte-like U-937 cells after 14 days storage.
(§2) It is known that Xe treatment protects neurons from apoptosis by reducing intracellular calcium, protecting mitochondrial membranes, and attenuating cell damage caused by reactive oxygen species (ROS)^28,29.

[4] = system: Apoe in CD68+ phagosomes in APP/PS1 mice; experiment: Apoe engulfed in CD68+ phagosomes in APP/PS1 mice; assay type: in vivo, mouse
Method: APP-PS1 and WT mice were exposed to Xenon vs. normal air in vivo for 8 weeks. After that, the mice were sacrificed and perfused with Hanks' Balanced Salt solution (HBSS). The mouse brain was separated, and the right hemisphere was fixed in 4% PFA. After 24 hours the hemisphere was then transferred to a 30% sucrose solution for 48 hours. Brains were later frozen in Tissue-TeK O.C.T. and stored at −80 until ready to be cut. […] sagittal brain sections were cut with a cryostat and kept free floating in cryoprotectant solution. On the first day of staining, free floating brain sections were washed twice with phosphate buffered saline (PBS) and then incubated for one hour in blocking buffer (PBS, 0.1% Triton, 1% Bovine Serum Albumin, 10% Normal Horse Serum). Afterwards, the sections were incubated with primary antibody [Mouse-anti-Apoe (1:1000) and Rat-anti-CD68 (1:200)] in pre-blocking buffer (PBS, 0.1% Triton, 1% Bovine Serum Albumin, 5% Normal Horse Serum) on a shaker overnight at 4° C. The following day, the sections were washed three times with PBS. […] For quantification of the percentage of Apoe engulfed in CD68^+ phagosomes, acquired images were imported to Fiji software (ImageJ). […] The overlap of the staining/CD68+ staining was quantified in both groups. […]

[5] = system: FCRLS+ microglia in APP/PS1 mice; experiment: RNAseq of FCRLS+ microglia from Xe-treated APP/PS1 mice; assay type: in vivo, mouse
Excerpt: Based on recent findings that danger signals (dead neurons, neuritic axons and Ab peptides) alter functional phenotype of microglia from the homeostatic (M0) to neurodegenerative (MGnD) phenotype in AD, we hypothesized that Xe-gas treatment has a protective immunomodulatory role to restore homeostatic ‘sensome’ microglial functions in neurodegenerative diseases. To address whether Xe-treatment will restore functional microglia and suppress AD-like pathology in APP-PS1^30 mice, we started treatment with Xe at 2 months of age (at the onset of amyloid deposition—early stage) for 8 weeks (once a week for 40 minutes). Of note, these mice start to develop plaques at 6 weeks of age with saturation around 8 months of age. To treat mice with xenon gas we constructed a special chamber which can control supply of Xe and atmospheric gas (FIG. 3A). The closed-circuit system pumps recirculated gas through soda-lime to absorb CO2. CO2 and O2 concentrations were continuously monitored. The gas mixture was premixed in the outside container with excessive pressure. That lead to approximately 70% Xe and 20% 02 in the chamber. When 02 concentration reduced, additional gas mixture was supplied from the mixing container. The system was optimized to treat simultaneously up to 6 mice. Two types of mice were used: APP/PS1 mice and Wild Type mice as a control. The groups contained both males and females who were housed and treated separately. In each group we subjected portion of the mice to Xe treatment, and another portion was used as control by treatment with atmospheric air (FIG. 3B). We isolated FCRLS^+ microglia by FACS and performed RNAseq analysis.

[6] = system: platelets and red blood cells, Lymphocyte-like Jurkat cells, H9C2 and U937 cells; experiment: Anti-apoptotic effect of Xe-gas on a variety of biological cells; assay type: cell-based, human
Excerpt: as §1, §2

[7] = system: cortical neurons and basal forebrain cholinergic neurons; details: mild excitotoxic stress by continued exposure to PDC; cited from earlier work
[8] = system: 6E10+ Abeta plaques and Clec7a+ MGnD microglia in APP/PS1 mice; experiment: Immunostaining of Ab load (6E10) and Clec7a+ MGnD microglia in cortex of APP/PS1 mice; assay type: in vivo, mouse
Method: APP-PS1 and WT mice were sacrificed and perfused with Hanks' Balanced Salt solution (HBSS). The mouse brains were separated, and the right hemispheres fixed in 4% PFA. After 24 hours the hemispheres were then transferred to a 30% sucrose solution for 48 hours. Brains were later frozen in Tissue-TeK O.C.T. and stored at −80 until ready to be cut. […] sagittal brain sections were cut with a cryostat and kept free floating in cryoprotectant solution. On the first day of staining, free floating brain sections were washed twice with phosphate buffered saline (PBS) and then incubated for one hour in blocking buffer (PBS, 0.1% Triton, 1% Bovine Serum Albumin, 10% Normal Horse Serum). Afterwards, the sections were incubated with primary antibody [Mouse-anti-Abeta Ab (1:1000, Biolegend, 6E10) and Rat-anti-Clec7a (1:300, Invivogen, mabg-mdect)] in pre-blocking buffer (PBS, 0.1% Triton, 1% Bovine Serum Albumin, 5% Normal Horse Serum) on a shaker overnight at 4° C. The following day, the sections were washed three times with PBS. Secondary antibodies (Donkey-anti-mouse-Cy3 (1:800, JIR, 715-165-150) and Goat-anti-Rat-647 (1:800, Invitrogen, A-21247)) in pre-blocking buffer were added to the sections for 1 hour at room temperature. After washing the sections 3 times with PBS, they were moved onto glass slides and covered with a glass coverslip and DAPI. Then images were taken by Leica DMi8 microscope. 4-6 images of prefrontal cortex with 10× magnification were taken per brain section (3 brain sections were stained per mouse, n=3-5).
For quantification of MGnD and Ab load, acquired images were imported to Fiji software (ImageJ). Then the data channels were separated. Gaussian filtering was used to remove noise. Next, the MGnD and plaques were shown using automatic thresholding methods in Fiji (with “Triangle” thresholding setting for MGnD and “Otsu” for Ab load 6E10). Finally, the percentage of the MGnD and Ab plaques over the cortical area was calculated and averaged, indicating the distribution of MGnD and Ab plaques in the prefrontal cortex.

[9] = Xe-gas for one hour immediately after dead neurons injection

In the case of `[Xe]` [Xenon], the “Trem2 expression in microglia” value [1, 9] is reported as “significantly induced”, the “expression of homeostatic genes such as Siglech, Cst3, Fcgrt and Clqb” value [1, 9] is reported as “induces expression” and the “homeostatic and phagocytosis-related genes in MG-dNΦ” value ([1]; Xenon vs. normal air in vivo, RNA-Sequencing) is reported as “induces”. The “clinical signs (EAE score)” value ([2]; 5 exposures of 40 minutes twice a week, day 0 to day 15) was “delay”, the “expression of CD44 (activation marker) in T lymphocytes” value ([2]; flow cytometry) was “tendency to lower expression” and the “frequency of IFNg in T lymphocytes” value ([2]; flow cytometry) was “higher frequency”. The “frequency of clec7a+ cells in the spinal cord” value ([2]; immunohistochemistry, day 17) was “decrease in the frequency”, the “frequency of microglial cells positive for Clec7a” value ([2]; spinal cord, flow cytometry) was “lower frequency” and the “frequency of microglial cells positive for Tmem119, PD1 and CD206” value ([2]; spinal cord, flow cytometry) was “tended to have a higher frequency”. For the same compound, the demyelination ([2]; spinal cord, immunohistochemistry, day 17) was “tendency of less demyelination”, the “apoptosis in stored U-937 cells” value [3] was “inhibited apoptosis” and the “APOE in the plaque region” value ([4]; APP/PS1 mice) was “reduced”. For the same compound, the “APOE phagocytosed by CD68+ cells” value ([4]; APP/PS1 mice exposed to Xenon vs. normal air for 8 weeks) was “significant reduction”, the “cytokines induced in MGnD-microglia associated with Aβ-plaques, such as Spp1, Apoe, and Igf1” value [5] was “suppresses” and the Bhlhe40 in microglia ([5]; Xe once a week for 40 minutes for 8 weeks) was “significantly reduced”. For the same compound, the “expression of inflammatory genes including App, Lpl, IIlb, Spp1 and Apoe in microglia” value ([5]; Xe once a week for 40 minutes for 8 weeks, approx. 70% Xe and 20% O2) was “suppressed”, the anti-apoptotic effect [6] was “profound anti-apoptotic effect” and the “antiapoptotic effect on neurons in AD cell models” value [7] was “direct antiapoptotic effect”. The “% positive area stained by Clec7a” value ([8]; APP/PS1 mice, cortex, compared to the control group) was “significantly decreased”, the “% cortical area of 6E10+ Abeta plaques” value ([8]; APP/PS1 mice, prefrontal cortex, compared to the control group) was “significant reduction” and the “number of plaques of different sizes” value ([8]; all groups of different plaque sizes) was “reduction in all groups”. For the same compound, the “number of plaques, plaque size 0-100 um2” value ([8]; plaque size 0-100 um2) was “reduction reached significance”.
